pIC50: −log10 of the molar value. Where two headings read alike, the source gives them in different places.

For test [1], the system named is Bcl-2. The experiment in a line: Bcl-2 inhibition assay. Type of test: cell-based, human. The conditions noted are these: lung (A-549) cancer cells, compound at IC50. As to the method:
4.2.8. Bcl-2 inhibition assay
Mix all reagents thoroughly without foaming before use. Wash the microwells twice with approximately 300 μL Wash Buffer per well with thorough aspiration of microwell contents between washes. Take caution not to scratch the surface of the microwells. After the last wash, empty the wells and tap microwell strips on absorbent pad or paper towel to remove excess Wash Buffer. Use the microwell strips immediately after washing or place upside down on a wet absorbent paper for not longer than 15 minutes. […] Add 100 μL of Sample […]
Diluent in duplicate to all standard wells and to the blank wells. Prepare standard (1:2 dilution) in duplicate ranging from 32 ng/mL to 0.5 ng/mL. Add 100 μL of Sample Diluent, in duplicate, to the blank wells. Add 80 μL of Sample Diluent, in duplicate, to the sample wells. Add 20 μL of each Sample, in duplicate, to the designated wells. Add 50 μL of diluted biotin-conjugate to all wells, including the blank wells. Cover with a plate cover and incubate at room temperature, on a microplate shaker at 100 rpm if available, for 2 hours. Remove plate cover and empty the wells.
Wash microwell strips 3 times as described in step 2. Add 100 μL of diluted Streptavidin-HRP to all wells, including the blank wells. Cover with a plate cover and incubate at room temperature, on a microplate shaker at 100 rpm if available, for 1 hour. Remove plate cover and empty the wells.
Wash microwell strips 3 times as described in step 2. Proceed to the next step. Pipette 100 μl of mixed TMB Substrate Solution to all wells, including the blanks. Incubate the microwell strips at room temperature (18° to 25°C) for about 15 minutes, if available on a rotator set at 100 rpm.
Avoid direct exposure to intense light. The point, at which the substrate reaction is stopped, is often determined by the ELISA reader. Many ELISA readers record absorbance only up to 2.0
O.D. Therefore, the color development within individual microwells must be watched by the person running the assay and the substrate reaction stopped before positive wells are no longer properly detectable. Stop the enzyme reaction by quickly pipetting 100 μL of Stop Solution into each well, including the blank wells. It is important that the Stop Solution is spread quickly and uniformly throughout the microwells to completely inactivate the enzyme. Results must be read immediately after the Stop Solution is added or within one hour i f the microwell strips are stored at 2 - 8°C in the dark. Read absorbance of each microwell on a spectrophotometer using 450 nm as the primary wavelength.

For test [2], the system named is Bax. In words: Bax activation assay. The conditions noted are these: lung (A-549) cancer cells, compound at IC50. The test is classed as cell-based, human. The protocol: Cells were obtained from American Type Culture Collection, cells were grown in RPMI 1640 containing 10% fetal bovine serum at 37°C, stimulated with the compounds to be tested for caspase8, and lysed with Cell Extraction Buffer. This lysate was diluted in Standard Diluent Buffer over the range of the assay and measured for human active caspase-8 content. […]
4.2.7. Bax activation assay
Bring all reagents, except the human Bax-α Standard, to room temperature for at least 30 minutes prior to opening. The human Bax-α Standard solution should not be left at room temperature for more than 10 minutes. All standards, controls and samples should be run in duplicate. Refer to the Assay Layout Sheet to determine the number of wells to be used and put any remaining wells with the desiccant back into the pouch and seal the ziploc. Store unused wells at 4 °C. Pipet 100 μL of Assay Buffer into the S0 (0 pg/mL standard) wells. Pipet 100 μL of Standards #1 through #6 into the appropriate wells. Pipet 100 μL of the Samples into the appropriate wells. Tap the plate gently to mix the contents. Seal the plate and incubate at room temperature on a plate shaker for 1 hour at ~500 rpm. Empty the contents of the wells and wash by adding 400 μL of wash solution to every well. Repeat the wash 4 more times for a total of 5 washes. After the final wash, empty or aspirate the wells and firmly tap the plate on a lint free paper towel to remove any remaining wash buffer.
Pipet 100 μL of yellow Antibody into each well, except the Blank. Seal the plate and incubate at room temperature on a plate shaker for 1 hour at ~500 rpm. Empty the contents of the wells and wash by adding 400 μL of wash solution to every well. Repeat the wash 4 more times for a total of 5 washes. After the final wash, empty or aspirate the wells and firmly tap the plate on a lint free paper towel to remove any remaining wash buffer. Add 100 μL of blue Conjugate to each well, except the Blank. Seal the plate and incubate at room temperature on a plate shaker for 30 minutes […]
Pipet 100 μL of Substrate Solution into each well. Incubate for 30 minutes at room temperature on a plate shaker at ~500 rpm. Pipet 100 μL Stop Solution to each well. Blank the plate reader against the Blank wells, read the optical density at 450 nm. Calculate the average net Optical Density (OD) bound for each standard and sample by subtracting the average Blank OD from the average OD for each standard and sample. Using linear graph paper, plot the Average Net OD for each standard versus Bax concentration in each standard. Approximate a straight line through the points.
The concentration of Bax in the unknowns can be determined by interpolation. […]

In test [3] the target is aromatase. The conditions noted are these: read-out: Aromatase inhibition IC50, cited from earlier work.

Consider `CN[C@@H]1C[C@H]2O[C@@](C)([C@@H]1OC)n1c3ccccc3c3c4c(c5c6ccccc6n2c5c31)C(=O)NC4` [Staurosporine, reference compound], for which the “Bcl-2 Conc” value in test [1] is 1.00 ng/mL. Besides, in test [2], the “Bax Conc” value was 288 ± 2 pg/mL.
As for `COc1ccc(S(=O)(=O)NCCc2c(C(c3ccc(O)cc3)c3[nH]c4ccccc4c3CCNS(=O)(=O)c3ccc(OC)cc3)[nH]c3ccccc23)cc1` [compound VIII], the negative logarithm of the IC50 (pIC50) (in general, the negative decadic logarithm of the IC50, by convention in mol/L) in test [3] (bis-/tris-indole sulfonamide series, ref Pingaew et al., 2018) is 6.15.
As to `N#Cc1c(-c2ccccc2)[nH]c2ccccc12` [compound VII], in test [3] (2-aryl indole series, ref Prior et al., 2017), the negative-log IC50 (pIC50) was 5.79.
As for `O=S(=O)(Cc1ccccc1)Nc1ccc2[nH]ccc2c1` [derivative IX], the pIC50 in test [3] (indole aryl sulfonamide series, ref Fantacuzzi et al., 2020) was 6.80.
